The values that follow come from US12522597B2, “Methods and compositions for modulating splicing” (Skyhawk Therapeutics, Inc., priority 2019, dated 2026).

Like-named read-outs stand apart in the source and are kept apart here.

The test system of data set [1] is Huntingtin (HTT) transcripts. The data set can be described thus: Quantitative splicing assay (HTT), qPCR. In kind it is cell-based. To be noted: Homo sapiens, GM04724 (CAG 70/20) Huntington's disease patient lymphoblasts, 24 h. Summed up:
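GM04724 HD patient lymphoblasts (CAG 70/20) dosed 24 h with compound from 2.5 uM to 0.15 nM (0.1% DMSO). Lysates converted to cDNA; TaqMan qPCR measured compound-induced inclusion of a cryptic exon in HTT intron 49.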

Data set [2] deals with MDR1-MDCK cell monolayers. As to the kind of experiment: MDCK-MDR1 permeability assay (BBB penetration potential). The format is in vitro ADME. To be noted: dog, MDCK-MDR1, 120 min, 5 μM, pH 7.4. As to the method: (§1) Each determination is performed in duplicate. […] Analytical conditions are outlined below.
In data set [3] the test system is MDR1. The description is as above. As to conditions: dog; for efflux ratio at 120 min, 5 μM: MDCK-MDR1, pH 7.4, MDCK-MDR1: Efflux; for Papp A→B at 120 min, 5 μM: MDCK-MDR1, pH 7.4, MDCK-MDR1: Papp A-B; for Papp B→A at 120 min, 5 μM: MDCK-MDR1, pH 7.4, MDCK-MDR1: Papp B-A. In kind it is in vitro ADME. As to the method: as §1
The test system of data set [4] is mHTT protein. The data set can be described thus: mHTT protein assay (2B7-MW1, Mesoscale Discovery). The format is cell-based, human. To be noted: GM04724 (CAG 70/20) Huntington's disease patient lymphoblast cells, 48 hours, 2B7-MW1 MSD; read-out: HTT Potency - Protein EC50 mHTT (average). Summed up:
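GM04724 Huntington's patient lymphoblasts (CAG 70/20) were treated for 48 h at 10 μM to 0.6 nM. mHTT was quantified by 2B7-MW1 MSD immunoassay, whose signal depends on polyQ expansion and HTT fragment size. Viability was run on a parallel plate by CellTiter-Glo.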

Where [5] appears, read: qPCR HTTex49_50, read-out: HTT Potency - Splicing: E49-50 EC50 (average).
Where [6] appears, read: qPCR cryptic exon 49b inclusion, read-out: HTT Potency - Splicing: E49b EC50 (average).

Regarding `Cn1c(=O)oc2cc(-c3ccc(O[C@@H]4C[C@H]5CCC[C@H](N5)[C@@H]4F)nn3)c(O)cc21` (single isomer, unassigned) [74-ENT1], the EC50 in data set [1] (setting [5]) fell in the range of 101 to 500 nM. The EC50 in data set [1] (setting [6]) was in the range of 501 to 10000 nM. For the same molecule, in data set [2], the “MDCK-MDR1: % Recov A-B” value stood at 96% and the “MDCK-MDR1: % Recov B-A” value turned out to be 88%. Further, in data set [3], the efflux ratio at 120 min, 5 μM is 4; the Papp A→B at 120 min, 5 μM turned out to be 5.6 ×10⁻⁶ cm/s; the Papp B→A at 120 min, 5 μM worked out at 22.8 ×10⁻⁶ cm/s. Moreover, the EC50 in data set [4] lay within 501 to 10000 nM.
Consider `Cn1ccc2cc(-c3ccc(O[C@H]4C[C@]5(C)CC[C@@](C)(N5)[C@H]4F)nn3)c(O)cc2c1=O` (single isomer, unassigned) [127-ENT1], for which the EC50 in data set [1] (setting [5]) is 101 to 500 nM. In addition, the EC50 in data set [1] (setting [6]) was 101 to 500 nM. For the same molecule, in data set [2], the “MDCK-MDR1: % Recov A-B” value was 78% and the “MDCK-MDR1: % Recov B-A” value is 70%. Further, in data set [3], the efflux ratio at 120 min, 5 μM stood at 7; the Papp A→B at 120 min, 5 μM is 6.39 ×10⁻⁶ cm/s; the Papp B→A at 120 min, 5 μM was found to be 46.5 ×10⁻⁶ cm/s. The EC50 in data set [4] is 51 to 100 nM.
As for `Oc1cc(-c2cn[nH]c2)ccc1-c1ccc(O[C@@H]2C[C@H]3C[C@H](F)C[C@@H](C2)N3)nn1` [compound 113, 2-(6-(((1R,3r,5S,7s)-7-fluoro-9-azabicyclo[3.3.1]nonan-3-yl)oxy)pyridazin-3-yl)-5-(1H-pyrazol-4-yl)phenol], the half-maximal effective concentration (EC50) in data set [1] (setting [5]) is 0.01 to 15 nM. Further, the EC50 in data set [1] (setting [6]) fell in the range of 0.01 to 15 nM. Moreover, in data set [2], the “MDCK-MDR1: % Recov A-B” value worked out at 86% and the “MDCK-MDR1: % Recov B-A” value worked out at 88%. Moreover, in data set [3], the efflux ratio at 120 min, 5 μM turned out to be 54; the Papp A→B at 120 min, 5 μM is 1.01 ×10⁻⁶ cm/s; the apparent permeability from basolateral to apical (Papp B→A) at 120 min, 5 μM came out at 54.2 ×10⁻⁶ cm/s. Further, in data set [4], the EC50 lay within 0.01 to 15 nM.
For the molecule `Cn1cc(-c2cc(O)c(-c3ccc(O[C@H]4C[C@@H]5CC[C@@H](N5)[C@H]4F)nn3)cc2F)cn1` (single isomer, unassigned) [61-ENT2], in data set [1] (setting [5]), the 50% effective concentration (EC50) fell in the range of 16 to 50 nM. Also, the half-maximal effective concentration (EC50) in data set [1] (setting [6]) fell in the range of 0.01 to 15 nM. In data set [2], the “MDCK-MDR1: % Recov A-B” value turned out to be 36% and the “MDCK-MDR1: % Recov B-A” value is recorded as 71%. Also, in data set [3], the efflux ratio at 120 min, 5 μM was 3; the Papp A→B at 120 min, 5 μM was found to be 4.5 ×10⁻⁶ cm/s; the Papp B→A at 120 min, 5 μM amounted to 12.2 ×10⁻⁶ cm/s. For the same molecule, the EC50 in data set [4] was 0.01 to 15 nM.
With `O=c1cc(-c2ccc(-c3ccc(O[C@H]4C[C@@H]5CCC[C@@H](N5)[C@H]4F)nn3)c(O)c2)cc[nH]1` (single isomer, unassigned) [53-ENT2], the concentration giving a half-maximal response (EC50) in data set [1] (setting [5]) was 101 to 500 nM. The EC50 in data set [1] (setting [6]) fell in the range of 101 to 500 nM. In data set [2], the “MDCK-MDR1: % Recov A-B” value was found to be 104% and the “MDCK-MDR1: % Recov B-A” value came out at 103%. Moreover, in data set [3], the efflux ratio at 120 min, 5 μM was 106; the Papp A→B at 120 min, 5 μM is 0.22 ×10⁻⁶ cm/s; the Papp B→A at 120 min, 5 μM is 23.2 ×10⁻⁶ cm/s. Further, the EC50 in data set [4] is 101 to 500 nM.
Take `Cn1cc(-c2ccc(-c3ccc(O[C@@H]4C[C@@]5(C)CCC[C@](C)(N5)[C@@H]4F)nn3)c(O)c2)cn1` (single isomer, unassigned) [154-ENT2]: the EC50 in data set [1] (setting [5]) fell in the range of 16 to 50 nM. Also, in data set [1] (setting [6]), the EC50 was in the range of 0.01 to 15 nM. In addition, in data set [2], the “MDCK-MDR1: % Recov A-B” value is reported as 81% and the “MDCK-MDR1: % Recov B-A” value is given as 92%. In addition, in data set [3], the efflux ratio at 120 min, 5 μM was 3; the Papp A→B at 120 min, 5 μM came to 6.92 ×10⁻⁶ cm/s; the Papp B→A at 120 min, 5 μM came to 22 ×10⁻⁶ cm/s. In data set [4], the EC50 was in the range of 16 to 50 nM.
